Values of other authors in publication PMC2984425, “Safety and pharmacokinetics of novel selective vascular endothelial growth factor receptor-2 inhibitor YN968D1 in patients with advanced malignancies” (BMC Cancer, 2010).

What was measured:
[1] = tested on: advanced refractory solid tumors; settings: pooled analysis of 137 patients from 4 phase I trials; cited from earlier work
renal cell carcinoma = tested on: renal cell carcinoma; parameters: method as in PMID 17215529; settings: first-line treatment for renal cell carcinoma; cited from earlier work
colorectal cancer = tested on: colorectal cancer; parameters: method as in PMID 17947727; settings: 84 patients with colorectal cancer, monotherapy; cited from earlier work
[2] = tested on: metastatic gastric cancer; parameters: method as in ref 16 = [16]; Moehler M Hartmann JT Lordick F Al-Batran S Reimer P Trarbach T Ebert M Daum S Weihrauch M Galle PR AIO Upper GI Group Sunitinib in patients with chemo-refractory metastatic gastric cancer: Preliminar; settings: of 52 patients, chemo-refractory metastatic gastric cancer; cited from earlier work

SMILES | PR, % of patients [1] [%] | evaluable patients who achieved PR [1] | patients who had SD [1] | patients with signs of disease progression by radiological imaging [1] [%] | progression-free survival (PFS) (renal cell carcinoma) [months] | response rate (renal cell carcinoma) [%] | patients who achieved PR (colorectal cancer) | patients with stable disease (colorectal cancer) | patients who showed tumor control [2]
CNC(=O)c1cc(Oc2ccc(NC(=O)Nc3ccc(Cl)c(C(F)(F)F)c3)cc2)ccn1 [sorafenib] | 1.4 | 2 | 38 | 70.8 |  |  |  |  | 
CCN(CC)CCNC(=O)c1c(C)[nH]c(/C=C2\C(=O)Nc3ccc(F)cc32)c1C [sunitinib] |  |  |  |  | 11 | 31 | 1 | 13 | 5
